# Results taken from US9243037B2, “Gramicidin a mutants that function as antibiotics with improved solubility and reduced toxicity” (Trustees of Boston College, priority 2011, dated 2016).
# Read-outs that look alike come from different tables or passages of the source. Where a SMILES comes first, the peptide text is derived from it. [ ]: non-standard residue; d: D form. The star is where a group is joined. dLys(Me3) = C[N+](C)(C)CCCC[C@@H](N)C(=O)O; NHCH2CH2OH = OCCN*; For = O=C*
# Experiments:
# [1] = system: human red blood cells (hRBCs); assay: Haemoglobin release from human red blood cells; type: cell-based
# Protocol: Fresh human red blood cells (hRBCs) were centrifuged at 3500 rpm and washed with PBS buffer until the supernatant was clear. The hRBCs were then resuspended and diluted to a final concentration of 1% (v/v) in PBS and used immediately. 15 μL of serial dilution (2-fold) of peptides in DMSO or DMSO alone as a negative control were added to 1.5 mL of hRBCs in PBS. The resulting mixture was gently shaken to mix well and incubated at 37° C. for 1 hr, followed by centrifugation at 3500 rpm for 10 min using tabletop centrifuge. Aliquots (50 μL) of the supernatant (in triplicates) were transferred into a sterile 96-well plate containing 50 μL of H2O in each well. Release of hemoglobin was monitored at 415 nm using a microtiter plate reader. Percentage hemolysis was calculated using percentage hemolysis=100·(A415, peptide-A415,DMSO)/(A415, complete hemolysis-A415, DMSO), where complete hemolysis is achieved by mixing hRBCs with 1% TritonX-100.
# [2] = physchem; type: physicochemical; settings: for solubility kinetic at 30 min: pH 7, aqueous with cosolvent or surfactant or cyclodextrin
# Protocol: Peptide solubility in 10 mM HEPES buffer with 1% DMSO was measured by monitoring tryptophan absorbance. A concentrated (6.0-8.0 mM) peptide stock solution in DMSO was diluted 100 times (5 μL of the stock into 500 jtl of 10 mM HEPES buffer, pH 7.0). The mixture was sonicated for 30 mins and then subject to centrifugation (14,000 rpm, 10 mins) to remove possible precipitate. The supernatant (400 μL) was transferred to a quartz cuvette and the peptide concentration was determined by tryptophan absorbance at 280 nm (ε=22760 M−1 cm-1). The UV/Vis spectra of the supernatant can be seen in FIG. 1 and FIG. 5.
# [3] = system: Streptococcus pyogenes (ATCC 19615)
# [4] = system: Staphylococcus aureus (ATCC 6538)
# [5] = system: human red blood cells (hRBCs); assay: K+ leakage from hRBCs (flame atomic emission); type: cell-based
# Protocol: The rest of supernatant (1.2 mL) from each sample prepared as described in the hemoglobin leakage assay was transferred into a new sterile eppendorf tube and subject to the K+ concentration measurement using a flame-atomic emission spectrometer (λem=766.5 nm, Perkin Elmer Atomic absorption Spectrometer 3100, acetylene/air flame). Three readings were taken for each sample and averaged as final results. The fraction of K+ leakage from hRBCs was calculated as percentage K+ leaked=100·(I776.5,peptide−I776.5,DMSO)/(I776.5,complete lysis−I776.5,DMSO).
# [6] = system: Bacillus subtilis (ATCC 663)
# [7] = Trp absorbance @ 280 nm; 10 mM PBS, pH 7.0, 1% DMSO; values taken from ref; cited from earlier work
# [8] = Peptide binding onto membranes (Trp fluorescence); settings: neutral POPC vesicles; in words
# [9] = Peptide binding onto membranes (Trp fluorescence); settings: negatively charged POPC/POPG vesicles; in words
Structure (SMILES),HC50 [1],haemoglobin leakage from hRBCs [1],Toxicity HC50 ([1]; red cells of human),solubility kinetic at 30 min [2],Minimum Inhibition Concentration S. Pyogenesis ([3]; ATCC 19615),Minimum Inhibition Concentration S. Aureus ([4]; ATCC 6538),KC50 [5],Toxicity KC50 [5],Minimum Inhibition Concentration B. Subtilius ([6]; ATCC 663),also measured
"CC(C)C[C@@H](NC(=O)[C@H](C)NC(=O)CNC(=O)[C@@H](NC=O)C(C)C)C(=O)N[C@@H](C)C(=O)N[C@@H](C(=O)N[C@H](C(=O)N[C@@H](C(=O)N[C@@H](Cc1c[nH]c2ccccc12)C(=O)N[C@H](CCCC[N+](C)(C)C)C(=O)N[C@@H](Cc1c[nH]c2ccccc12)C(=O)N[C@H](CC(C)C)C(=O)N[C@@H](Cc1c[nH]c2ccccc12)C(=O)N[C@H](CCCC[N+](C)(C)C)C(=O)N[C@@H](Cc1c[nH]c2ccccc12)C(=O)NCCO)C(C)C)C(C)C)C(C)C [10, 14M] (For-VGA[dL]A[dV]V[dV]W[dLys(Me3)]W[dL]W[dLys(Me3)]W-NHCH2CH2OH)",>24,"[c] HC50 is the peptide concentration required to cause 50% of haemoglobin leakage from human red blood cells compared to the lysis of same amount cells by 1% TritonX-100. No haemoglogin leakage was observed in the cases of 10, 14M, 10, 12M or 10, 12, 14M at the concentration range tested.",>24 µM,30 µM,1.25 µM,> 10 µM,20,20 µM,2.5 µM,HC50 printed in the S. Aureus MIC cell ([4]; ATCC 6538): 1.25 µM
CC(C)C[C@@H](NC(=O)[C@H](C)NC(=O)CNC(=O)[C@@H](NC=O)C(C)C)C(=O)N[C@@H](C)C(=O)N[C@@H](C(=O)N[C@H](C(=O)N[C@@H](C(=O)N[C@@H](Cc1c[nH]c2ccccc12)C(=O)N[C@H](CC(C)C)C(=O)N[C@@H](Cc1c[nH]c2ccccc12)C(=O)N[C@H](CCCC[N+](C)(C)C)C(=O)N[C@@H](Cc1c[nH]c2ccccc12)C(=O)N[C@H](CCCC[N+](C)(C)C)C(=O)N[C@@H](Cc1c[nH]c2ccccc12)C(=O)NCCO)C(C)C)C(C)C)C(C)C [1214MeK] (For-VGA[dL]A[dV]V[dV]W[dL]W[dLys(Me3)]W[dLys(Me3)]W-NHCH2CH2OH),–,–,–,–,–,–,–,–,–,KC50 ([5]; Table 8): >10
"CC(C)C[C@@H](NC(=O)[C@H](C)NC(=O)CNC(=O)[C@@H](NC=O)C(C)C)C(=O)N[C@@H](C)C(=O)N[C@@H](C(=O)N[C@H](C(=O)N[C@@H](C(=O)N[C@@H](Cc1c[nH]c2ccccc12)C(=O)N[C@H](CCCCN)C(=O)N[C@@H](Cc1c[nH]c2ccccc12)C(=O)N[C@H](CC(C)C)C(=O)N[C@@H](Cc1c[nH]c2ccccc12)C(=O)N[C@H](CC(C)C)C(=O)N[C@@H](Cc1c[nH]c2ccccc12)C(=O)NCCO)C(C)C)C(C)C)C(C)C (racemic) [gA-1, formyl-V-G-A-dL-A-dV-V-dV-W-dK-W-dL-W-dL-W-NHCH2CH2OH]",–,–,–,–,–,–,–,–,–,"Sat. Conc, Lys series [7]: 10 µM; HC50 (50% haemoglobin leakage relative to 1% TritonX-100) ([1]; red cells of human): 5~10 μM; apparent dissociation constant (Kd) / binding [8]: apparent Kd values close to that of gA-WT; water solubility, fold higher than wild-type Gramicidin A [2]: ~200 fold; apparent dissociation constant (Kd) / binding [9]: apparent Kd values close to that of gA-WT; MICs S. Pyogenes ([3]; ATCC 19615): 0.16 µM; MIC relative to wild-type Gramicidin A ([3]; S. Pyogenes): equivalent to that of wild-type Gramicidin A; MICs S. Aureus ([4]; ATCC 6538): 2.5 µM; MIC relative to wild-type Gramicidin A ([4]; S. Aureus): equivalent to that of wild-type Gramicidin A; KC50 (50% K+ ion leakage relative to 1% TritonX-100) [5]: 0.01 µM; peptide concentration for 50% K+ ion leakage, fold greater than wild-type Gramicidin A [5]: ~100 fold; MICs B. Subtilius ([6]; ATCC 663): 5 µM; MIC relative to wild-type Gramicidin A ([6]; B. subtilis): equivalent to that of wild-type Gramicidin A"
CC(C)C[C@@H](NC(=O)[C@H](C)NC(=O)CNC(=O)[C@@H](NC=O)C(C)C)C(=O)N[C@@H](C)C(=O)N[C@@H](C(=O)N[C@H](C(=O)N[C@@H](C(=O)N[C@@H](Cc1c[nH]c2ccccc12)C(=O)N[C@H](CCCC[N+](C)(C)C)C(=O)N[C@@H](Cc1c[nH]c2ccccc12)C(=O)N[C@H](CC(C)C)C(=O)N[C@@H](Cc1c[nH]c2ccccc12)C(=O)N[C@H](CC(C)C)C(=O)N[C@@H](Cc1c[nH]c2ccccc12)C(=O)NCCO)C(C)C)C(C)C)C(C)C [10M] (For-VGA[dL]A[dV]V[dV]W[dLys(Me3)]W[dL]W[dL]W-NHCH2CH2OH),19,–,19 µM,4.3 µM,0.15 µM,2.5 µM,0.04,0.04 µM,2.5 µM,–
CC(C)C[C@@H](NC(=O)[C@H](C)NC(=O)CNC(=O)[C@@H](NC=O)C(C)C)C(=O)N[C@@H](C)C(=O)N[C@@H](C(=O)N[C@H](C(=O)N[C@@H](C(=O)N[C@@H](Cc1c[nH]c2ccccc12)C(=O)N[C@H](CC(C)C)C(=O)N[C@@H](Cc1c[nH]c2ccccc12)C(=O)N[C@H](CC(C)C)C(=O)N[C@@H](Cc1c[nH]c2ccccc12)C(=O)N[C@H](CCCC[N+](C)(C)C)C(=O)N[C@@H](Cc1c[nH]c2ccccc12)C(=O)NCCO)C(C)C)C(C)C)C(C)C [14M] (For-VGA[dL]A[dV]V[dV]W[dL]W[dL]W[dLys(Me3)]W-NHCH2CH2OH),24,–,24 µM,3.6 µM,0.078 µM,1.25 to 2.5 µM,0.015,0.015 µM,2.5 µM,–
CC(C)C[C@@H](NC(=O)[C@H](C)NC(=O)CNC(=O)[C@@H](NC=O)C(C)C)C(=O)N[C@@H](C)C(=O)N[C@@H](C(=O)N[C@H](C(=O)N[C@@H](C(=O)N[C@@H](Cc1c[nH]c2ccccc12)C(=O)N[C@H](CC(C)C)C(=O)N[C@@H](Cc1c[nH]c2ccccc12)C(=O)N[C@H](CCCC[N+](C)(C)C)C(=O)N[C@@H](Cc1c[nH]c2ccccc12)C(=O)N[C@H](CC(C)C)C(=O)N[C@@H](Cc1c[nH]c2ccccc12)C(=O)NCCO)C(C)C)C(C)C)C(C)C [12MeK] (For-VGA[dL]A[dV]V[dV]W[dL]W[dLys(Me3)]W[dL]W-NHCH2CH2OH),–,–,–,–,–,–,–,–,–,HC50 ([1]; Table 8): >10; KC50 ([5]; Table 8): 0.2
"CC(C)C[C@@H](NC(=O)[C@H](C)NC(=O)CNC(=O)[C@@H](NC=O)C(C)C)C(=O)N[C@@H](C)C(=O)N[C@@H](C(=O)N[C@H](C(=O)N[C@@H](C(=O)N[C@@H](Cc1c[nH]c2ccccc12)C(=O)N[C@H](CCCC[N+](C)(C)C)C(=O)N[C@@H](Cc1c[nH]c2ccccc12)C(=O)N[C@H](CCCC[N+](C)(C)C)C(=O)N[C@@H](Cc1c[nH]c2ccccc12)C(=O)N[C@H](CC(C)C)C(=O)N[C@@H](Cc1c[nH]c2ccccc12)C(=O)NCCO)C(C)C)C(C)C)C(C)C [10, 12M] (For-VGA[dL]A[dV]V[dV]W[dLys(Me3)]W[dLys(Me3)]W[dL]W-NHCH2CH2OH)",>10,"[c] HC50 is the peptide concentration required to cause 50% of haemoglobin leakage from human red blood cells compared to the lysis of same amount cells by 1% TritonX-100. No haemoglogin leakage was observed in the cases of 10, 14M, 10, 12M or 10, 12, 14M at the concentration range tested.",>10 µM,27 µM,> 10 µM,–,>10,>10 µM,–,EC50 ([3]; ATCC 19615): 1250 nM
"CC(C)C[C@@H](NC(=O)[C@H](C)NC(=O)CNC(=O)[C@@H](NC=O)C(C)C)C(=O)N[C@@H](C)C(=O)N[C@@H](C(=O)N[C@H](C(=O)N[C@@H](C(=O)N[C@@H](Cc1c[nH]c2ccccc12)C(=O)N[C@H](CCCC[N+](C)(C)C)C(=O)N[C@@H](Cc1c[nH]c2ccccc12)C(=O)N[C@H](CCCC[N+](C)(C)C)C(=O)N[C@@H](Cc1c[nH]c2ccccc12)C(=O)N[C@H](CCCC[N+](C)(C)C)C(=O)N[C@@H](Cc1c[nH]c2ccccc12)C(=O)NCCO)C(C)C)C(C)C)C(C)C [10, 12, 14M] (For-VGA[dL]A[dV]V[dV]W[dLys(Me3)]W[dLys(Me3)]W[dLys(Me3)]W-NHCH2CH2OH)",>95,"[c] HC50 is the peptide concentration required to cause 50% of haemoglobin leakage from human red blood cells compared to the lysis of same amount cells by 1% TritonX-100. No haemoglogin leakage was observed in the cases of 10, 14M, 10, 12M or 10, 12, 14M at the concentration range tested.",>95 µM,55 µM,–,–,>95,>95 µM,–,–
